The results in this text go back to US20240383904A1, “HETEROCYCLIC COMPOUNDS” (Hoffmann-La Roche Inc., priority 2021, published 2024).

The assay has as its target T1, MAGL (Homo sapiens, UniProt Q99685).
T1 sequence (Q99685 1-303): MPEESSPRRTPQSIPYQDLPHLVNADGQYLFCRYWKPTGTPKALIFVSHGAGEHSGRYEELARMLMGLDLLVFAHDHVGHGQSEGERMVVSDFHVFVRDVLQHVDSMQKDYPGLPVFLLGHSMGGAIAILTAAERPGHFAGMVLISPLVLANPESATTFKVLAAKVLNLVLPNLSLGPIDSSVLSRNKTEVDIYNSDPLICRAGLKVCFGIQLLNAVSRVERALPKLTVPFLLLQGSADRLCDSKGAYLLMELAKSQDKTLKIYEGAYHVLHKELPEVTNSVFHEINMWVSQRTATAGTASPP
Description: 2-AG assay: MAGL inhibitory activity by hydrolysis of 2-arachidonoylglycerol to arachidonic acid, followed by mass spectrometry. The conditions noted are these: 15 min preincubation, 30 min reaction at RT, 8 μM 2-arachidonoylglycerol. It is filed as biochemical. The text has this: Compounds of formula (I) were profiled for MAGL inhibitory activity by determining the enzymatic activity by following the hydrolysis of the natural substrate 2-arachidonoylglycerol (2-AG) resulting in arachidonic acid, which can be followed by mass spectrometry. This assay is hereinafter abbreviated “2-AG assay”.
Compounds of formula (I) were profiled for MAGL inhibitory activity by determining the enzymatic activity by following the hydrolysis of the natural substrate 2-arachidonoylglycerol (2-AG) resulting in arachidonic acid, which can be followed by mass spectrometry. This assay is hereinafter abbreviated “2-AG assay”. The 2-AG assay was carried out in 384 well polypropylene assay plates. Compound dilutions were made in 100% DMSO in a polypropylene plate in 3-fold dilution steps to give a final concentration range in the assay from 12.5 μM to […]. Compound dilutions were added to MAGL protein in assay buffer (50 mM TRIS, 1 mM EDTA, 0.01% (v/v) Tween-20, 2.5% (v/v) DMSO). After shaking, the plate was incubated for 15 min at RT. To start the reaction, 2-arachidonoylglycerol in assay buffer was added. The final concentrations in the assay was […] for MAGL protein and 8 μM 2-arachidonoylglyerol. After shaking and 30 min incubation at RT, the reaction was quenched by the addition of two assay volumes of acetonitrile containing 4 μM of d8-arachidonic acid. The amount of arachidonic acid formed was traced by an online SPE system (Agilent Rapidfire) coupled to a triple quadrupole mass spectrometer. A C18 SPE cartridge (Agilent G9205A) was used in an acetonitrile/water liquid setup. The mass spectrometer was operated in negative electrospray mode following the mass transitions 303.1→259.1 for arachidonic acid and 311.1→267.0 for d8-arachidonic acid. The activity of the compounds was calculated based on the ratio of intensities [arachidonic acid/d 8-arachidonic acid].
With `O=C1NC2(CO1)CN(C(=O)N1CC3(CCC(Oc4ccc(C(F)(F)F)nn4)CC3)C1)C2` [Example 47, 2-[7-[6-(trifluoromethyl)pyrida-zin-3-y1]oxy-2-azaspiro[3.5]nonane-2-carbonyl]-7-oxa-2,5-diazaspiro[3.4]octan-6-one], the IC50 is 2.94 nM. As for `O=C1NC2(CO1)CN(C(=O)N1CC3(CC(c4ccc(S(=O)(=O)C(F)(F)F)cc4)C3)C1)C2` [Example 48, 2-[6-(4-triflylphenyl)-2-azaspiro[3.3]heptane-2-carbonyl]-7-oxa-2,5-diazaspiro[3.4]octan-6-one], the figure is 0.15 nM. With `O=C1NC2(CO1)CN(C(=O)N1CC3(CC(CNC4(C(F)(F)F)CC4)C3)C1)C2` [Example 49, 2-[6-[[[1-(trifluoromethyl)cyclopro-ropyl]amino]methyl]-2-azaspiro[3.3]heptane-2-carbonyl]-7-oxa-2,5-diazaspiro[3.4]octan-6-one], the IC50 was found to be 0.77 nM. As for `O=C1NC2(CO1)CN(C(=O)N1CC3(CC(NS(=O)(=O)c4cccc(C(F)(F)F)c4)C3)C1)C2` [Example 50, N-[2-(6-keto-7-oxa-2,5-diazaspiro[3.4]octane-2-carbonyl)-2-azaspiro[3.3]heptan-6-yl]-3-(trifluoromethyl)benzene-sulfonamide], the figure is 0.78 nM; as for `O=C1NC2(CO1)CN(C(=O)N1CC3(CC(Nc4ccc(C(F)(F)F)nn4)C3)C1)C2` [Example 51, 2-[6-[[6-(trifluoromethyl)pyrida-zin-3-yl]amino]-2-azaspiro[3.3]heptane-2-carbonyl]-7-oxa-2,5-diazaspiro[3.4]octan-6-one], 24 nM.

`O=C1NC2(CCO1)CN(C(=O)N1CC3(CC(NS(=O)(=O)c4cccc(C(F)(F)F)c4)C3)C1)C2` [Example 52, N-[2-(6-keto-7-oxa-2,5-diazaspiro[3.5]nonane-2-carbonyl)-2-azaspiro[3.3]heptan-6-yl]-3-(trifluoromethyl)benzene-sulfonamide] came in with a half-maximal inhibitory concentration (IC50) of 742 nM. The same measure for `O=C1NC2(CO1)CN(C(=O)N1CC3(CC(Cn4cc(C(F)(F)F)cn4)C3)C1)C2` [Example 53, 2-[6-[[4-(trifluoromethyl)pyrazol-1-y1]methyl]-2-azaspiro[3.3]heptane-2-carbonyl]-7-oxa-2,5-diazaspiro[3.4]octan-6-one]: 0.44 nM. As for `O=C1CCC2(CN(C(=O)N3CC4(CC(Cn5cc(C(F)(F)F)cn5)C4)C3)C2)N1` [Example 54, 2-[6-[[4-(trifluoromethyl)pyrazol-1-y1]methyl]-2-azaspiro[3.3]heptane-2-carbonyl]-2,5-diazaspiro[3.4]octan-6-one], the figure is 9.37 nM; as for `O=C1CCC2(CN(C(=O)N3CC4(CC(NS(=O)(=O)c5cccc(C(F)(F)F)c5)C4)C3)C2)N1` [Example 55, N-[2-(6-keto-2,5-diazaspiro[3.4]octane-2-carbonyl)-2-azaspiro[3.3]heptan-6-yl]-3-(trifluoromethyl)benzen esulfonamide], 9.81 nM; as for `O=C1NC2(CO1)CN(C(=O)N1CC3(CC(n4cnc(C5CC5)n4)C3)C1)C2` [Example 56, 2-[6-(3-cyclopropyl-1,2,4-triazol-1-yl)-2-azaspiro[3.3]heptane-2-carbonyl]-7-oxa-2,5-diazaspiro[3.4]octan-6-one], 12.9 nM. As for `O=C1CCC2(CN(C(=O)N3CC4(CC(Cc5nc(C(F)(F)F)ns5)C4)C3)C2)N1` [Example 57, 2-[6-[[3-(trifluoromethyl)-1,2,4-thiadiazol-5-y1]methyl]-2-azaspiro[3.3]heptane-2-carbonyl]-2,5-diazaspiro[3.4]octan-6-one], the figure is 13.4 nM; as for `O=C1CCC2(CN(C(=O)N3CC4(CC(Cc5nc(C(F)(F)F)co5)C4)C3)C2)N1` [Example 58, 2-[6-[[4-(trifluoromethyl)oxazol-2-yl]methyl]-2-azaspiro[3.3]heptane-2-carbonyl]-2,5-diazaspiro[3.4]octan-6-one], 17.3 nM.

Regarding `O=C1CCC2(CN(C(=O)N3CC4(CC(Cn5cnc(C(F)(F)F)c5)C4)C3)C2)N1` [Example 59, 2-[6-[[4-(trifluoromethyl)imidazol-1-yl]methyl]-2-azaspiro[3.3]heptane-2-carbonyl]-2,5-diazaspiro[3.4]octan-6-one], half-maximal inhibition (IC50) required 36.6 nM. This IC50 is about 2.1-fold higher than that of the molecule before. As for `O=C1CCC2(CN(C(=O)N3CC4(CCC(Cc5ccc(C(F)(F)F)cn5)CC4)C3)C2)N1` [Example 60, 2-[7-[[5-(trifluoromethyl)-2-pyridyl]methyl]-2-azaspiro[3.5]nonane-2-carbonyl]-2,5-diazaspiro[3.4]octan-6-one], the figure is 0.74 nM; as for `O=C1NC2(CO1)CN(C(=O)N1CC3(CCC(Cc4ccc(C(F)(F)F)cn4)CC3)C1)C2` [Example 61, 2-[7-[[5-(trifluoromethyl)-2-pyridyl]methyl]-2-azaspiro[3.5]nonane-2-carbonyl]-7-oxa-2,5-diazaspiro[3.4]octan-6-one], 0.19 nM; as for `O=C1NC2(CO1)CN(C(=O)N1CC3(CCC(OCC4(C(F)(F)F)CC4)CC3)C1)C2` [Example 62, 2-[7-[[1-(trifluoromethyl)cyclopro-pyl]methoxy]-2-azaspiro[3.5]nonane-2-carbonyl]-7-oxa-2,5-diazaspiro[3.4]octan-6-one], 0.98 nM. Consider `O=C1NC2(CO1)CN(C(=O)N1CC3(CC(c4cnc(C(F)(F)F)cn4)C3)C1)C2` [Example 63, 2-[6-[5-(trifluoromethyl)pyrazin-2-yl]-2-azaspiro[3.3]heptane-2-carbonyl]-7-oxa-2,5-diazaspiro[3.4]octan-6-one], for which the 50% inhibitory concentration (IC50) was determined as 1.28 nM. The same measure for `O=C1NC2(CO1)CN(C(=O)N1CC3(CC(OCC4(C(F)(F)F)CC4)C3)C1)C2` [Example 64, 2-[6-[[1-(trifluoromethyl)cyclopro-pyl]methoxy]-2-azaspiro[3.3]heptane-2-carbonyl]-7-oxa-2,5-diazaspiro[3.4]octan-6-one]: 1.28 nM; for `O=C1NC2(CO1)CN(C(=O)N1CC3(CC(NC4(C(F)(F)F)CC4)C3)C1)C2` [Example 65, 2-[6-[[1-(trifluoromethyl)cyclopro-pyl]amino]-2-azaspiro[3.3]heptane-2-carbonyl]-7-oxa-2,5-diazaspiro[3.4]octan-6-one]: 1.85 nM.

In turn, `O=C1CCC2(CN(C(=O)N3CC4(CC(Cn5cnc(C(F)(F)F)n5)C4)C3)C2)N1` [Example 66, 2-[6-[[3-(trifluoromethyl)-1,2,4-triazol-1-yl]methyl]-2-carbonyl]-2,5-diazaspiro[3.4]octan-6-one] gave a half-inhibitory concentration (IC50) of 29.9 nM. As for `O=C1NC2(CO1)CN(C(=O)N1CC3(CC(C(=O)NC4(C(F)(F)F)CC4)C3)C1)C2` [Example 67, 2-(6-keto-7-oxa-2,5-diazaspiro[3.4]octane-carbonyl)-N-[1-(trifluoromethyl)cyclopro-pyl]-2-azaspiro[3.3]heptane-6-carboxamide], the figure is 88.6 nM; as for `O=C1NC2(CO1)CN(C(=O)N1CC3(CCC(Oc4ccnc(C(F)(F)F)n4)CC3)C1)C2` [Example 68, 2-[7-[2-(trifluoromethyl)pyrimi-din-4-yl]oxy-2-azaspiro[3.5]nonane-2-carbonyl]-7-oxa-2,5-diazaspiro[3.4]octan-6-one], 2.13 nM. The same measure for `O=C1NC2(CO1)CN(C(=O)N1CC3(CCC(Oc4cnc(C(F)(F)F)cn4)CC3)C1)C2` [Example 69, 2-[7-[5-(trifluoromethyl)pyrazin-2-yl]oxy-2-azaspiro[3.5]nonane-2-carbonyl]-7-oxa-2,5-diazaspiro[3.4]octan-6-one]: 0.83 nM. The same measure for `O=C1NC2(CO1)CN(C(=O)N1CC3(CC(Oc4cnc(C(F)(F)F)cn4)C3)C1)C2` [Example 70, 2-[6-[5-(trifluoromethyl)pyrazin-2-yl]oxy-2-azaspiro[3.3]heptane-2-carbonyl]-7-oxa-2,5-diazaspiro[3.4]octan-6-one]: 3.68 nM; for `O=C1NC2(CO1)CN(C(=O)N1CC3(CCC(Oc4cnc(C(F)(F)F)cn4)C3)C1)C2` (stereo not drawn) [Example 71, 2-[6-[5-(trifluoromethyl)pyrazin-2-yl]oxy-2-azaspiro[3.4]octane-2-carbonyl]-7-oxa-2,5-diazaspiro[3.4]octan-6-one]: 3.29 nM; for `CS(=O)(=O)c1ccc(CC2CCC3(C2)CN(C(=O)N2CC4(COCC(=O)N4)C2)C3)cc1` (stereo not drawn) [Example 72, 2-[6-(4-mesylbenzyl)-2-azaspiro[3.4]octane-2-carbonyl]-8-oxa-2,5-diazaspiro[3.5]nonan-6-one]: 98.2 nM.

For the molecule `O=C1CCC2(CN(C(=O)N3CC4(CC(Oc5ccc(C(F)(F)F)nn5)C4)C3)C2)N1` [Example 75, 2-[6-[6-(trifluoromethyl)pyridazin-3-yl]oxy-2-azaspiro[3.3]heptane-2-carbonyl]-2,5-diazaspiro[3.4]octan-6-one], the IC50 is 271 nM.
